# Patent publication US7795279B2, “Method of inhibiting FLT3 kinase” (Janssen Pharmaceutica NV, priority 2005, dated 2010)
# pIC50: −log10 of the molar value. Where a name gives a salt, the structure may show the parent alone.
# System: MV4-11 cells
# Assay: Inhibition of MV4-11 cell proliferation (CellTiterGlo)
# Format: cell-based
# Conditions: Homo sapiens, 72 hours growth, uncertainty ±20%
# Protocol: To assess the cellular potency of compounds of the present invention, FLT3 specific growth inhibition was measured in the leukemic cell line MV4-11 (ATCC Number: CRL-9591). MV4-11 cells are derived from a patient with childhood acute myelomonocytic leukemia with an 11q23 translocation resulting in a MLL gene rearrangement and containing an FLT3-ITD mutation (AML subtype M4)(1,2). MV4-11 cells cannot grow and survive without active FLT3ITD.
# To measure proliferation inhibition by compounds of the present invention, the luciferase based CellTiterGlo reagent (Promega), which quantifies total cell number based on total cellular ATP concentration, was used. Cells are plated at 10,000 cells per well in 100 ul of in RPMI media containing penn/strep, 10% FBS and 1 ng/ml GM-CSF or 1 ng/ml IL-3 for MV4-11 and Baf3 cells respectively.
# Compound dilutions or 0.1% DMSO (vehicle control) are added to cells and the cells are allowed to grow for 72 hours at standard cell growth conditions (37° C., 5% CO2). For activity measurements in MV4-11 cells grown in 50% plasma, cells were plated at 10,000 cells per well in a 1:1 mixture of growth media and human plasma (final volume of 100 μL). To measure total cell growth an equal volume of CellTiterGlo reagent was added to each well, according to the manufacturer's instructions, and luminescence was quantified. Total cell growth was quantified as the difference in luminescent counts (relative light units, RLU) of cell number at Day 0 compared to total cell number at Day 3 (72 hours of growth and/or compound treatment). One hundred percent inhibition of growth is defined as an RLU equivalent to the Day 0 reading. Zero percent inhibition was defined as the RLU signal for the DMSO vehicle control at Day 3 of growth.
# Data points are an average of triplicate samples. […] Inhibition and IC50 data analysis was done with GraphPad Prism using a non-linear regression fit with a multiparamater, sigmoidal dose-response (variable slope) equation.
row,Compound,pIC50
1,"Cc1ccccc1-c1cc(N2CCN(C)CC2)ccc1NC(=O)c1ccc(C#N)o1 [Example 9, 5-Cyano-furan-2-carboxylic acid [2′-methyl-5-(4-methyl-piperazin-1-yl)-biphenyl-2-yl]-amide]",6.00
2,"CN1CCN(c2ccc(NC(=O)c3ccc(C#N)o3)c(C3=CCCCC3)c2)CC1 [Example 11, 5-Cyano-furan-2-carboxylic acid [2-cyclohex-1-enyl-4-(4-methyl-piperazin-1-yl)-phenyl]-amide]",6.88
3,CN1CCN(c2ccc(NC(=O)c3ccc(C#N)o3)c(C3=CCOCC3)c2)CC1 [Example 12],< 5.00
4,"Cn1ccnc1CN1CCC(c2ccc(NC(=O)c3nc(C#N)c[nH]3)c(C3=CCCC3)c2)CC1 [Example 23, 4-Cyano-1H-imidazole-2-carboxylic acid {2-cyclopent-1-enyl-4-[1-(1-methyl-1 H-imidazol-2-ylmethyl)-piperidin-4-yl]-phenyl}-amide trifluoroacetic acid salt]",6.94
5,"N#Cc1c[nH]c(C(=O)Nc2ccc(C3CCN(CCN4CCOCC4)CC3)cc2C2=CCCCC2)n1 [Example 34, 4-Cyano-1H-imidazole-2-carboxylic acid {2-cyclohex-1-enyl-4-[1-(2-morpholin-4-yl-ethyl)-piperidin-4-yl]-phenyl}-amide di-trifluoroacetic acid salt]",8.10
6,"N#Cc1c[nH]c(C(=O)Nc2ccc(C3CCS(=O)(=O)CC3)cc2C2=CCCCC2)n1 [Example 35, 4-Cyano-1H-imidazole-2-carboxylic acid [2-cyclohex-1-enyl-4-(1,1-dioxo-hexahydro-1λ^6-thiopyran-4-yl)-phenyl]-amide]",6.72
7,"N#Cc1c[nH]c(C(=O)Nc2ccc(C3CCNCC3)cc2C2=CCS(=O)(=O)CC2)n1 [Example 36, 4-Cyano-1H-imidazole-2-carboxylic acid [2-(1,1-dioxo-1,2,3,6-tetrahydro-1λ^6-thiopyran-4-yl)-4-piperidin-4-yl-phenyl]-amide trifluoroacetic acid salt]",6.72
8,"CS(=O)(=O)CCN1CCC(c2ccc(NC(=O)c3nc(C#N)c[nH]3)c(C3=CCCCC3)c2)CC1 [Example 40, 4-Cyano-1H-imidazole-2-carboxylic acid {2-cyclohex-1-enyl-4-[1-(2-methanesulfonyl-ethyl)-piperidin-4-yl]-phenyl}-amide]",6.94
9,"C[C@@H]1CC(c2ccc(NC(=O)c3ncc(C#N)[nH]3)c(C3=CCCCC3)c2)C[C@H](C)N1 (stereo partly drawn) [Example 51a, 5-Cyano-1H-imidazole-2-carboxylic acid [2-cyclohex-1-enyl-4-(cis-2,6-dimethyl-piperidin-4-yl)-phenyl]-amide bis trifluoroacetic acid salt]",8.33
